Columns and labels:
[1] = tested on: Plasmopara viticola; test: D-1: Action against Plasmopara viticola on vines (residual-protective and residual-curative action); type: in vivo; settings: vine seedlings, spray mixture 0.02% active ingredient; evaluated after 6 days at 95-100% relative humidity and 20° C.
Protocol: D-1: Action against Plasmopara viticola on Vines a) Residual-protective Action
Vine seedlings are sprayed at the 4- to 5-leaf stage with a spray mixture (0.02% active ingredient) prepared from a wettable powder formulation of the test compound. After 24 hours, the treated plants are infected with a sporangia suspension of the fungus. Fungus infestation is evaluated after incubation for 6 days at 95-100% relative humidity and 20° C. […]
b) Residual-curative Action
Vine seedlings are infected at the 4- to 5-leaf stage with a sporangia suspension of the fungus. After incubation for 24 hours in a humidity chamber at 95-100% relative humidity and 20° C., the infected plants are dried and sprayed with a spray mixture (0.02% active ingredient) prepared from a wettable powder formulation of the test compound. After the spray coating has dried, the treated plants are placed in the humidity chamber again. Fungus infestation is evaluated 6 days after infection.

[2] = tested on: Phytophthora; test: D-2: Action against Phytophthora on tomato plants (residual-protective and systemic action); type: in vivo; settings: spray mixture 0.02% active ingredient, sprayed or watered, evaluated 4-5 days after infection at 90-100% relative humidity and 20° C.
Protocol: D-2: Action Against Phytophthora on Tomato Plants
(§1) a) Residual-protective Action
After a cultivation period of 3 weeks, tomato plants are sprayed with a spray mixture (0.02% active ingredient) prepared from a wettable powder formulation of the test compound. After 48 hours, the treated plants are infected with a sporangia suspension of the fungus. Fungus infestation is evaluated after incubation of the infected plants for 5 days at 90-100% relative humidity and 20° C.
After a cultivation period of 3 weeks, tomato plants are watered with a spray mixture (0.02% active ingredient based on the volume of the soil) prepared from a wettable powder formulation of the test compound. […] After 96 hours, the treated plants are infected with a sporangia suspension of the fungus. Fungus infestation is evaluated after incubation of the infected plants for 4 days at 90-100% relative humidity and 20° C.

[3] = tested on: Phytophthora; test: D-3: Action against Phytophthora on potato plants (residual-protective and systemic action); type: in vivo; settings: potato plants (Bintje variety), spray mixture 0.02% active ingredient, sprayed or watered; evaluated after 4 days at 90-100% relative humidity and 20° C.
Protocol: D-3: Action Against Phytophthora on Potato Plants
as §1
2-3 week old potato plants (Bintje variety) are sprayed with a spray mixture (0.02% active ingredient) prepared from a wettable powder formulation of the test compound. After 48 hours, the treated plants are infected with a sporangia suspension of the fungus. Fungus infestation is evaluated after incubation of the infected plants for 4 days at 90-100% relative humidity and 20° C.
2-3 week old potato plants (Bintje variety) are watered with a spray mixture (0.02% active ingredient based on the volume of the soil) prepared from a wettable powder formulation of the test compound. […] After 48 hours, the treated plants are infected with a sporangia suspension of the fungus. Fungus infestation is evaluated after incubation of the infected plants for 4 days at 90-100% relative humidity and 20° C.

Compound	melting point [°C]	Fungus infestation (fungicidal action against Plasmopara viticola on vines) [1]	Fungus infestation (action against Phytophthora on tomato plants) [2]	Fungus infestation (fungicidal action against Phytophthora on potatoes) [3]
COc1ccc(CCNC(=O)C(=NSC)c2ccc(-c3ccc(C)cc3)cc2)cc1OC [Compound 11.171, 2-[4-(4-methyl-phenyl)-phenyl]-N-[2-(3,4-di-methoxy-phenyl)-ethyl]-2-methylthioimino-acetamide]	40 to 47	completely inhibit fungal infestation		
COc1ccc(CCNC(=O)C(=NSC)c2ccc(-c3ccc(C(C)(C)C)cc3)cc2)cc1OC [Compound 11.351, 2-[4-(4-tert.-butyl-phenyl)-phenyl]-N-[2-(3,4-di-methoxy-phenyl)-ethyl]-2-methylthioimino-acetamide]	45 to 52	completely inhibit fungal infestation		
C#CCOc1ccc(CCNC(=O)C(=NSC)c2ccc(Cl)cc2)cc1OC [Compound 14.001, 2-(4-chloro-phenyl)-N-[2-(3-methoxy-4-prop-2-ynyloxy-phenyl)-ethyl]-2-methylthioimino-acetamide]		completely inhibit fungal infestation	completely inhibit fungal infestation	completely inhibit fungal infestation
C#CCOc1ccc(CCNC(=O)C(=NSC)c2ccc(Cl)c(Cl)c2)cc1OC [Compound 14.011, 2-(3,4-dichloro-phenyl)-N-[2-(3-methoxy-4-prop-2-ynyloxy-phenyl)-ethyl]-2-methylthioimino-acetamide]		completely inhibit fungal infestation	completely inhibit fungal infestation	completely inhibit fungal infestation
C#CCOc1ccc(CCNC(=O)C(=NSC)c2ccc(Br)cc2)cc1OC [Compound 14.031, 2-(4-bromo-phenyl)-N-[2-(3-methoxy-4-prop-2-ynyloxy-phenyl)-ethyl]-2-methylthioimino-acetamide]		completely inhibit fungal infestation	completely inhibit fungal infestation	
CC#COc1ccc(CCNC(=O)C(=NSC)c2ccc(C)cc2)cc1OC [Compound 14.041, N-[2-(3-methoxy-4-prop-ynyloxy-phenyl)-ethyl]-2-methylthioimino-2-(4-tolyl)-acetamide]		completely inhibit fungal infestation	completely inhibit fungal infestation	completely inhibit fungal infestation
C#CCOc1ccc(CCNC(=O)C(=NSC)c2ccc(OC)cc2)cc1OC [Compound 14.051, 2-(4-methoxy-phenyl)-N-[2-(3-methoxy-4-prop-2-ynyloxy-phenyl)-ethyl]-2-methylthioimino-acetamide]		completely inhibit fungal infestation		
C#CCOc1ccc(CCNC(=O)C(=NSC)c2ccc(F)cc2)cc1OC [Compound 14.071, 2-(4-fluoro-phenyl)-N-[2-(3-methoxy-4-prop-2-ynyloxy-phenyl)-ethyl]-2-methylthioimino-acetamide]		completely inhibit fungal infestation		
C#CCOc1ccc(CCNC(=O)C(=NSC)c2ccc3ccccc3c2)cc1OC [Compound 14.121, N-[2-(3-methoxy-4-prop-ynyloxy-phenyl)-ethyl]-2-naphthalen-2-yl-2-methylthioimino-2-acetamide]		completely inhibit fungal infestation		
